Source: patent publication US5191079A, “Quinolinecarboxylic acid derivatives” (priority 1990, dated 1993)
≈ marks a conversion by molar mass, not a printed value. Where a name gives a salt, the structure may show the parent alone. Read-outs that look alike come from different tables or passages of the source.

Columns and labels:
Format in all cases: cell-based
[1] = tested on: Acinetobacter calcoaceticus Ac 54; test: MIC, Experiment 1; details: AC54, A. calcoaceticus Ac 54, Gram -, read-out: Min. inhib. concentr. (MIC)
Procedure: (§1) The compounds of the present invention (B, E, G, H, M, N, O, P and Q) were each dissolved in dimethylsulfoxide to prepare a solution of 5000 μg/ml in concentration. The compounds of the present invention (I, J and K) and the known compound (Y) were each dissolved in sterilized distilled water to prepare a solution of 5000 μg/ml in concentration. Each solution was diluted with sterilized distilled water to prepare a standard solution with a concentration of each test compound: 1000 μg/ml. The test was carried out by a method as appointed by Japan Society of Chemotherapy [cf. Chemotherapy, 29, 76-79 (1981), TOKYO].
(§2) As to Streptococcus pneumoniae and Streptococcus pyogenes, Brain heart infusion broth (manufactured by DIFCO) was used as the medium for the preculture thereof, and a heart infusion agar medium containing 5% defibrinated horse blood (manufactured by Nissui Seiyaku K. K., Japan) was used as the medium for the measurement of minimum inhibitory concentration (MIC). As to other microorganisms, a sensitivity test broth (manufactured by Nissui Seiyaku K. K.) was used as the medium for the preculture thereof, and a sensitivity test agar medium (manufactured by Nissui Seiyaku K. K.) was used as the medium for the measurement of MIC.

Bacillus cereus IAM 1029 = test: MIC, Experiment 1; details: IAM1029, B. cereus IAM 1029, Gram +, read-out: Min. inhib. concentr. (MIC)
Procedure: as §1, §2

[2] = tested on: Bacillus subtilis ATCC 6633; test: MIC, Experiment 1; details: ATCC6633, B. subtilis ATCC 6633, Gram +, read-out: Min. inhib. concentr. (MIC)
Procedure: as §1, §2

Enterobacter cloacae 963 = test: MIC, Experiment 1; details: E. cloacae 963, Gram -, read-out: Min. inhib. concentr. (MIC)
Procedure: as §1, §2

[3] = tested on: Escherichia coli NIHJ JC-2; test: MIC, Experiment 1; details: NIHJJC2, E. coli NIHJ JC-2, Gram -, read-out: Min. inhib. concentr. (MIC)
Procedure: as §1, §2

[4] = tested on: Klebsiella pneumoniae PCI-602; test: MIC, Experiment 1; details: PCI602, K. pneumoniae PCI-602, Gram -, read-out: Min. inhib. concentr. (MIC)
Procedure: as §1, §2

[5] = tested on: Micrococcus luteus ATCC 9341; test: MIC, Experiment 1; details: ATCC9341, M. luteus ATCC 9341, Gram +, read-out: Min. inhib. concentr. (MIC)
Procedure: as §1, §2

[6] = tested on: Proteus mirabilis IFO 3849; test: MIC, Experiment 1; details: IFO3849, P. mirabilis IFO 3849, Gram -, read-out: Min. inhib. concentr. (MIC)
Procedure: as §1, §2

[7] = tested on: Pseudomonas aeruginosa NCTC 10490; test: MIC, Experiment 1; details: NCTC10490, P. aeruginosa NCTC 10490, Gram -, read-out: Min. inhib. concentr. (MIC)
Procedure: as §1, §2

[8] = tested on: Staphylococcus aureus ATCC 9144; test: MIC, Experiment 1; details: ATCC9144, S. aureus ATCC 9144, Gram +, read-out: Min. inhib. concentr. (MIC)
Procedure: as §1, §2

[9] = tested on: Staphylococcus aureus Cowan I (IID 975); test: MIC, Experiment 1; details: IID975, S. aureus Cowan I (IID 975), Gram +, read-out: Min. inhib. concentr. (MIC)
Procedure: as §1, §2

[10] = tested on: Staphylococcus aureus FDA 209P JC-1; test: MIC, Experiment 1; details: FDA209P, S. aureus FDA 209P JC-1, Gram +, read-out: Min. inhib. concentr. (MIC)
Procedure: as §1, §2

[11] = tested on: Staphylococcus aureus FDA 243; test: MIC, Experiment 1; details: FDA243, S. aureus FDA 243, Gram +, read-out: Min. inhib. concentr. (MIC)
Procedure: as §1, §2

[12] = tested on: Staphylococcus aureus IID 803; test: MIC, Experiment 1; details: IID803, S. aureus IID 803, Gram +, read-out: Min. inhib. concentr. (MIC)
Procedure: as §1, §2

[13] = tested on: Staphylococcus aureus MS-353; test: MIC, Experiment 1; details: MS353, S. aureus MS-353, Gram +, read-out: Min. inhib. concentr. (MIC)
Procedure: as §1, §2

[14] = tested on: Staphylococcus aureus Terajima (IID 670); test: MIC, Experiment 1; details: IID670, S. aureus Terajima (IID 670), Gram +, read-out: Min. inhib. concentr. (MIC)
Procedure: as §1, §2

[15] = tested on: Streptococcus pneumoniae IID 552; test: MIC, Experiment 1; details: IID552, S. pneumoniae IID 552, Gram +, agar with 5% defibrinated horse blood, read-out: Min. inhib. concentr. (MIC)
Procedure: as §1, §2

[16] = tested on: Streptococcus pneumoniae IID 554; test: MIC, Experiment 1; details: IID554, S. pneumoniae IID 554, Gram +, agar with 5% defibrinated horse blood, read-out: Min. inhib. concentr. (MIC)
Procedure: as §1, §2

[17] = tested on: Streptococcus pyogenes Cook; test: MIC, Experiment 1; details: S. pyogenes Cook, Gram +, agar with 5% defibrinated horse blood, read-out: Min. inhib. concentr. (MIC)
Procedure: as §1, §2

[18] = tested on: Streptococcus pyogenes Su; test: MIC, Experiment 1; details: S. pyogenes Su, Gram +, agar with 5% defibrinated horse blood, read-out: Min. inhib. concentr. (MIC)
Procedure: as §1, §2

[19] = tested on: Streptococcus pyogenes Sv; test: MIC, Experiment 1; details: S. pyogenes Sv, Gram +, agar with 5% defibrinated horse blood, read-out: Min. inhib. concentr. (MIC)
Procedure: as §1, §2

[20] = tested on: clinically isolated Staphylococcus aureus; test: In vitro antibacterial activity against clinical isolates, Experiment 2; details: for MIC50: 50% of strains, read-out: MIC50
Procedure: The above solutions were then diluted with sterilized distilled water to prepare a standard solution with a concentration of the test compound: 1000 μg/ml each.
For the preculture of each microorganism, there was used as the medium a sensitivity test broth (manufactured by Nissui Seiyaku K. K., Japan), and for the measurement of MIC, there was used a sensitivity test agar medium (manufactured by Nissui Seiyaku K. K.).
The clinically isolates used above were isolated from Nov. 1988 to Jun. 1989 and were obtained from Research Section, Tokyo Clinical Research Center.

[21] = 25 clinical strains S. aureus incl. 16 methicillin resistant
[22] = 25 clinical strains S. aureus incl. 16 methicillin resistant, 90% of strains, read-out: MIC90

| Structure (SMILES) | MIC [1] | MIC (Bacillus cereus IAM 1029) | MIC [2] | MIC (Enterobacter cloacae 963) | MIC [3] | MIC [4] | MIC [5] | MIC [6] | MIC [7] | MIC [8] | MIC [9] | MIC [10] | MIC [11] | MIC [12] | MIC [13] | MIC [14] | MIC [15] | MIC [16] | MIC [17] | MIC [18] | other results |
| --- | --- | --- | --- | --- | --- | --- | --- | --- | --- | --- | --- | --- | --- | --- | --- | --- | --- | --- | --- | --- | --- |
| CN1Cc2csc3c(C(=O)O)c(=O)c4cc(F)c(N5CCOC(CF)C5)c1c4n23 (stereo not drawn) [Compound (C), 9,1-(Methylimino)methano-7-fluoro-8-(2-fluoromethylmorpholino)-5-oxo-5H-thiazolo[3,2-a]quinoline-4-carboxylic acid] | ≤ 0.006 µg/mL | 0.013 µg/mL (≈ 0.0308 µM) | ≤ 0.006 µg/mL | 0.2 µg/mL (≈ 0.475 µM) | 0.2 µg/mL (≈ 0.475 µM) | ≤ 0.006 µg/mL | 0.1 µg/mL (≈ 0.237 µM) | 0.2 µg/mL (≈ 0.475 µM) | 0.39 µg/mL (≈ 0.925 µM) | 0.013 µg/mL (≈ 0.0308 µM) | 0.013 µg/mL (≈ 0.0308 µM) | 0.013 µg/mL (≈ 0.0308 µM) | ≤ 0.006 µg/mL | ≤ 0.006 µg/mL | 0.013 µg/mL (≈ 0.0308 µM) | 0.013 µg/mL (≈ 0.0308 µM) | 0.025 µg/mL (≈ 0.0593 µM) | 0.05 µg/mL (≈ 0.119 µM) | 0.05 µg/mL (≈ 0.119 µM) | 0.025 µg/mL (≈ 0.0593 µM) | MIC [19]: 0.05 µg/mL (≈ 0.119 µM); MIC [20, 21]: 0.006 to 0.2 µg/mL (≈ 0.0142 to 0.475 µM); MIC50 [20, 21]: 0.013 µg/mL (≈ 0.0308 µM); MIC90 [20, 22]: 0.2 µg/mL (≈ 0.475 µM) |
| CN1Cc2csc3c(C(=O)O)c(=O)c4cc(F)c(N5CCO[C@H](CO)C5)c1c4n23 [Compound (M), 9,1-(Methylimino)methano-7-fluoro-8-[ (2S)-2-hydroxymethylmorpholino]-5-oxo-5H-thiazolo[3,2-a]quinoline-4-carboxylic acid] | ≤ 0.006 µg/mL | 0.025 µg/mL (≈ 0.0596 µM) | ≤ 0.006 µg/mL | 0.2 µg/mL (≈ 0.477 µM) | 0.1 µg/mL (≈ 0.238 µM) | ≤ 0.006 µg/mL | 0.2 µg/mL (≈ 0.477 µM) | 0.39 µg/mL (≈ 0.93 µM) | 0.39 µg/mL (≈ 0.93 µM) | ≤ 0.006 µg/mL | 0.013 µg/mL (≈ 0.031 µM) | 0.013 µg/mL (≈ 0.031 µM) | ≤ 0.006 µg/mL | 0.013 µg/mL (≈ 0.031 µM) | 0.025 µg/mL (≈ 0.0596 µM) | 0.025 µg/mL (≈ 0.0596 µM) | 0.05 µg/mL (≈ 0.119 µM) | 0.05 µg/mL (≈ 0.119 µM) | 0.05 µg/mL (≈ 0.119 µM) | 0.025 µg/mL (≈ 0.0596 µM) | MIC [19]: 0.05 µg/mL (≈ 0.119 µM); MIC90 [20]: 0.78 µg/mL (≈ 1.86 µM); MIC [20, 21]: 0.006 to 0.78 µg/mL (≈ 0.0143 to 1.86 µM); MIC50 [20, 21]: 0.013 µg/mL (≈ 0.031 µM) |
| CN1Cc2csc3c(C(=O)O)c(=O)c4cc(F)c(N5CCN(C)C(CF)C5)c1c4n23 (stereo not drawn) [Compound (K), 9,1-(methylimino)methano-7-fluoro-8-(3-fluoromethyl-4-methyl-1-piperazinyl)-5-oxo-5H-thiazolo[3,2-a]quinoline-4-carboxylic acid hydrochloride] | 0.025 µg/mL | 0.05 µg/mL | 0.013 µg/mL | 0.2 µg/mL | 0.2 µg/mL | 0.013 µg/mL | 0.39 µg/mL | 0.39 µg/mL | 0.78 µg/mL | 0.05 µg/mL | 0.05 µg/mL | 0.05 µg/mL | 0.05 µg/mL | 0.05 µg/mL | 0.05 µg/mL | 0.05 µg/mL | 0.05 µg/mL | 0.1 µg/mL | 0.1 µg/mL | 0.05 µg/mL | MIC [19]: 0.1 µg/mL; MIC [20, 21]: 0.025 to 1.56 µg/mL; MIC50 [20, 21]: 0.05 µg/mL; MIC90 [20, 22]: 1.56 µg/mL |
| COCC1CN(c2c(F)cc3c(=O)c(C(=O)O)c4scc5n4c3c2N(C)C5)CCO1 (stereo not drawn) [Compound (E), 9,1-(Methylimino)methano-7-fluoro-8-(2-methoxymethylmorpholino)-5-oxo-5H-thiazolo[3,2-a]quinoline-4-carboxylic acid] | 0.013 µg/mL (≈ 0.03 µM) | 0.025 µg/mL (≈ 0.0577 µM) | ≤ 0.006 µg/mL | 0.78 µg/mL (≈ 1.8 µM) | 0.2 µg/mL (≈ 0.461 µM) | 0.025 µg/mL (≈ 0.0577 µM) | 0.1 µg/mL (≈ 0.231 µM) | 0.78 µg/mL (≈ 1.8 µM) | 1.56 µg/mL (≈ 3.6 µM) | 0.013 µg/mL (≈ 0.03 µM) | ≤ 0.006 µg/mL | 0.025 µg/mL (≈ 0.0577 µM) | ≤ 0.006 µg/mL | 0.013 µg/mL (≈ 0.03 µM) | 0.013 µg/mL (≈ 0.03 µM) | 0.025 µg/mL (≈ 0.0577 µM) | 0.05 µg/mL (≈ 0.115 µM) | 0.05 µg/mL (≈ 0.115 µM) | 0.05 µg/mL (≈ 0.115 µM) | 0.05 µg/mL (≈ 0.115 µM) | MIC [19]: 0.05 µg/mL (≈ 0.115 µM); MIC90 [20]: 0.78 µg/mL (≈ 1.8 µM); MIC [20, 21]: 0.006 to 0.78 µg/mL (≈ 0.0138 to 1.8 µM); MIC50 [20, 21]: 0.013 µg/mL (≈ 0.03 µM) |
